Data from patent US9289405B2, “Compounds provided with antioxidant activity against free radicals, and pharmaceutical and cosmetic compositions containing them” (GIULIANI S.P.A, priority 2010, dated 2016).
Structures can show the parent of a compound that is named as a salt.

Legend:
THP-1 cells = test: Modulation of the production of ROS induced by LPS, cytofluorometry with DCFH; format: cell-based, human; settings: 1 hour treatment, serum-free medium, LPS 0.1 μg/ml, compared with Trolox 100 μM, FIG. 1
Method: (§1) Two cellular systems were used: NCTC 2544, a line of human keratinocytes, and THP-1, a human promyelocytic line. The results were expressed as mean±standard deviation. Each experiment was repeated at least twice.
Tributyltin (TBT) and lipopolysaccharide (LPS) are used as […] inducers of radical species. The production of ROS was evaluated by cytofluorometry techniques for the THP-1 cell line, using DCFH as stain.
The optimum times and concentrations for cytofluorometric measurement of ROS were identified in preliminary experiments.
The vitamin E derivative 6-hydroxy-2,5,7,8-tetramethylchroman-2-carboxylic acid (Trolox), at a concentration of 100 μM, was used as positive control.
The THP-1 cells were treated for 1 hour with compounds 1 and 2 of the invention at a concentration of 100 μg/ml, with compound 3 at a concentration of 200 μg/ml and with Trolox 100 μM in serum-free medium, loaded in the last 30 minutes with DCFH (10 μM) and then treated in the presence or absence of LPS (0.1 μg/ml) and analysed in the cytofluorometer.

NCTC 2544 cells = test: Lipid lipoperoxidation induced by TBT, malondialdehyde content via thiobarbituric acid; format: cell-based, human; settings: 24 hours pre-treatment at maximum tolerated concentration, then TBT 2.5 μM for 24 hours, FIG. 2
Method: as §1
Lipid peroxidation was evaluated on the NCTC 2544 cells by measuring the content of malondialdehyde, one of the main by-products of lipid peroxidation, through its reactivity with thiobarbituric acid. The results are expressed as absorbance/mg protein. The protein content was evaluated by the Bradford method.
The NCTC cells were treated for 24 hours in the presence or in the absence of the maximum tolerated concentration of said compounds 1, 2, 3, and then stimulated with TBT 1-2.5 μM for a further 24 hours.
Trolox 100 μM was used as positive control.

## C/C=C/C=C/C=C/C(=O)O [compound 1, 2E,4E,6E-octatrienoic acid]
THP-1 cells; compound at 100 μg/ml
  production of ROS induced by LPS: nullifying the production of ROS induced by LPS 0.1 μg/ml to an extent not less than Trolox
NCTC 2544 cells
  lipoperoxidation induced by TBT (malondialdehyde content): statistically significant (p<0.05) decrease of lipoperoxidation

## C/C=C/C=C/C=C/C(=O)[O-].[K+] [compound 2, potassium 2E,4E,6E-octatrienoate]
THP-1 cells; compound at 100 μg/ml
  production of ROS induced by LPS: nullifying the production of ROS induced by LPS 0.1 μg/ml to an extent not less than Trolox
NCTC 2544 cells
  lipoperoxidation induced by TBT (malondialdehyde content): statistically significant (p<0.05) decrease of lipoperoxidation

## C/C=C/C=C/C=C/C(=O)O [compound 3, 2E,4E,6E-octatrienoic acid, L-lysine salt]
THP-1 cells; compound at 200 μg/ml
  production of ROS induced by LPS: nullifying the production of ROS induced by LPS 0.1 μg/ml to an extent not less than Trolox
